Results taken from BindingDB's records for doi:10.1074/jbc.M113.479303 (Wageningen University, 2013).

Legend:
Assay in all cases: Substrate Binding Assay
Details in all cases: pH 8
[1] = molecular target: Probable salicylate monooxygenase [H213A] (Rhodococcus jostii (strain RHA1), UniProt Q0SFK6, H213A)
Method: (§1) The interaction of 3HB6H (25 uM) with substrate analogs was studied in 50 mM Tris-SO4 (pH 8.0). Dissociation constants (Kd) of enzyme-substrate complexes were determined from flavin absorption difference spectra essentially as described elsewhere [Montersino et al., Biochim. Biophys. Acta, 1824:433-442].

[2] = molecular target: T1, Probable salicylate monooxygenase (Rhodococcus jostii (strain RHA1), UniProt Q0SFK6)
T1 sequence (Q0SFK6 whole entry): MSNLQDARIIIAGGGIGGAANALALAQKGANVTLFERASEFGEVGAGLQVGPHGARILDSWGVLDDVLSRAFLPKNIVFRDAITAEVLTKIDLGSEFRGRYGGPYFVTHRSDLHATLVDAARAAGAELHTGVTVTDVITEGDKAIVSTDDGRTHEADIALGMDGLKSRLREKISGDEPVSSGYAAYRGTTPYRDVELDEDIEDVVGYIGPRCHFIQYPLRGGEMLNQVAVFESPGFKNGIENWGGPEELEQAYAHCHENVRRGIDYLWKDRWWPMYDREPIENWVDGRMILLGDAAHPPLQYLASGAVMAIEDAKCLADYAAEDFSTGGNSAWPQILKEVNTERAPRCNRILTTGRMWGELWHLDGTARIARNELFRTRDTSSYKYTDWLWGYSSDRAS
Method: as §1

[3] = molecular target: Probable salicylate monooxygenase [Y105F] (Rhodococcus jostii (strain RHA1), UniProt Q0SFK6, Y105F)
Method: as §1

O=C(O)c1cccc(O)c1
Kd [1]: 61 µM
Kd [2]: 48 µM
Kd [3]: 644 µM
